Results as given in patent US7341717B2, “Therapeutic targets for treatment of HCV infections, methods of treating HCV infections and compounds useful therefor” (priority 2001, dated 2008).

Tests used:
[1] = test system: HCV replicon (subgenomic HCV RNA, NS5a); assay: HCV replicon RNA (Northern blot) and NS5a protein (Western blot) levels in HuH7 replicon cell lines; format: cell-based, Hepatitis C virus; settings: for effect like all-trans-retinoic acid (GI-GPx upregulation, reduction of HCV RNA and NS5a): alone or in combination with each other or with selenium or a selenium salt; for reduction of HCV load: replicon cells
Protocol: The HuH7 pcDNA3 control cells and the replicon cell lines 5-15, 11-7 and 9-13 were plated as described in legend to FIG. 1 and after three days (Day 0) treated for two (Day 2) and four days (Day 4) with 1000U/ml interferon α (IFN-α). Then, cultures were harvested and RNA was prepared. 10 μg of total RNA were used for Northern blot analysis. For detection of GI-GPx (A) Probe 1 was used (see FIG. 1). The membranes were stripped and successively hybridized with probes for PKR (B) and neomycin phosphotransferase (Neo)(C). […]
(§1) Western blot analysis was performed using an NS5a antibody (FIG. 5). Expression of the transduced GI-GPx cDNA was monitored with a GI-GPx-specific antiserum (FIG. 6).
(§2) Replicon cells were incubated with alpha interferon (IFN-α) for two and four days. Northern blot analyses were performed with 10 μg total RNA. […] Interferon had no effect on the expression of GI-GPx in mock transfected HuH7 cells (cf FIG. 4).
(§3) As a model system for HCV replication there were utilized three replicon cell lines provided by Prof. R. Bartenschlager (University of Heidelberg, Germany). Cultures were treated for various periods of time with all trans-retinoic acid (RA) for comparative purposes and the other agents selenium, selenium salts, Vitamin D3 and retinoids, like 9-cis-retinoic acid, C1-C10 alkyl esters of 9-cis-retinoic acid, C1-C10 alkyl amides of 9-cis-retinoic acid, N-(4-hydroxyphenyl) retinamide (4-HPR), 6-[3-(1-adamantyl)-4-hydroxyphenyl]-2-naphthalene carboxylic acid (CD437; AHPN) (obtained from Sigma), paraquat, 4-[E-2-(5,6,7,8-tetrahydro-5,5,8,8-tetramethyl-2-naphthalenyl)-1-propenyl]benzoic acid, 4-hydroxyphenylretinamide, and 4-[(5,6,7,8-tetrahydro-5,5,8,8-tetramethyl-2-naphtalenyl)carboxamido]benzoic acid.
(§4) Levels of GI-GPx protein expression were measured by Western Blotting using antibodies provided by Prof. Brigelius-Flohe (University of Potsdam, Germany), and RNA levels were measured by Northern blotting using GI-GPx-specific oligonucleotides as probes. Levels of HCV RNA were investigated by Northern Blotting using a DNA oligonucleotide complementary to the neomycin phosphotransferase gene as probe. Concentration of the viral protein NS5a was determined by Western Blotting with an NS5a-specific antibody (Biogenesis, UK).

replicon cells = assay: Cytotoxic effects in replicon cells; format: cell-based, human
Description: As a model system for HCV replication there were utilized three replicon cell lines provided by Prof. R. Bartenschlager (University of Heidelberg, Germany).

GI-GPx [2] = assay: GI-GPx expression in mock transfected HuH7 cells; format: cell-based, human
Protocol: (§5) The HuH7 pcDNA3 control cells and the replicon cell lines 5-15, 11-7 and 9-13 were plated as described in legend to FIG. 1 and after three days (Day 0) treated for two (Day 2) and four days (Day 4) with 1000U/ml interferon α (IFN-α). Then, cultures were harvested and RNA was prepared. 10 μg of total RNA were used for Northern blot analysis. For detection of GI-GPx (A) Probe 1 was used (see FIG. 1). The membranes were stripped and successively hybridized with probes for PKR (B) and neomycin phosphotransferase (Neo)(C).
as §2

GI-GPx [3] = assay: GI-GPx RNA and protein expression in HuH7 replicon cell lines; format: cell-based, human
Protocol: as §5, §1
The x-ray films were densitometrically scanned and the NS5a values compared with untransfected control cells (set as 100%) (FIG. 5) and the GI-GPx values compared with the maximum expression of the transduced GI-GPx cDNA obtained seven days post infection (set as 100%) (FIG. 6).
as §2, §3, §4

HuH 5-15 replicon cells = assay: Paraquat sensitivity, Alamar Blue viability assay; format: cell-based, human; settings: HuH 5-15, 24 hours, three independent experiments
Protocol: (§6) Cells were plated in 96-well microtiter plates (5×10^3 cells/0.35 cm^2) and after three days treated for 24 hours with the concentration of paraquat depicted. Cell viability was measured utilizing an Alamar-Blue assay and is reflected by relative fluorescence units (RFU) at 405 nm.
(§7) Replicon cell lines and control cells were incubated for 24 hours with various concentrations of paraquat (methylviologen), and viability of the cultures was measured using the Alamar Blue assay.
(§8) For quantification of the degree of cell death in cell culture we employed the viability assay based on the reduction of tetrazolium salt to formazan by mitochondrial dehydrogenase activity. The assay was performed in 96-well microtiter plates (Greiner, Frickenhausen, Germany) as described previously (T. Herget et al., 1998, J. Neurochem., 70: 47-58) but Alamar Blue (Roche Molecular Biochemicals, Germany) was used instead of MTT. The light absorbance at 405 nm of the medium including all factors but without cells was determined and subtracted from the absorption readings with cells. Eight wells per sample point were analyzed and each experiment was repeated independently at least three times.

HuH 11-7 replicon cells = assay: Paraquat sensitivity, Alamar Blue viability assay; format: cell-based, human; settings: HuH 11-7, 24 hours, three independent experiments
Protocol: as §6, §7, §8

HuH pcDNA3 control cells = assay: Paraquat sensitivity, Alamar Blue viability assay; format: cell-based, human; settings: 24 hours, three independent experiments
Protocol: as §6, §7, §8

HuH 9-13 replicon cells = assay: Paraquat sensitivity, Alamar Blue viability assay; format: cell-based, human; settings: HuH 9-13, 24 hours, three independent experiments
Protocol: as §6, §7, §8

[4] = test system: PKR (double strand RNA-dependent protein kinase); assay: Transcription of PKR in replicon cells; format: cell-based, human
Protocol: as §5
This fact implies that downregulation of HCV was promoted firstly by activation of the GI-GPx gene on transcriptional level by retinoic acid and secondly by the synthesis of selenoprotein(s) for which sodium selenite was needed. Indeed it could be shown that all-trans-retinoic acid-induced downregulation of HCV is independent of the innate immune response induced by interferon.

Molecule	effect like all-trans-retinoic acid (GI-GPx upregulation, reduction of HCV RNA and NS5a) [1]	reduction of HCV load [1]	other results
CC1(C)CCC(C)(C)c2cc(C(=O)Nc3ccc(C(=O)O)cc3)ccc21 [4-[(5,6,7,8-tetrahydro-5,5,8,8-tetramethyl-2-naphthalenyl)carboxamido]benzoic acid]	showed a similar effect	capable of reducing HCV load	
CCOC(=O)/C=C(C)/C=C/C=C(C)/C=C/c1c(C)cc(OC)c(C)c1C [etretinate]	showed a similar effect	capable of reducing HCV load	
C/C(=C\c1ccc(C(=O)O)cc1)c1ccc2c(c1)C(C)(C)CCC2(C)C [4-[E-2-(5,6,7,8-tetrahydro-5,5,8,8-tetramethyl-2-naphthalenyl)-1-propenyl]benzoic acid]	showed a similar effect	capable of reducing HCV load	
CC1=C(/C=C/C(C)=C/C=C/C(C)=C\C(=O)O)C(C)(C)CCC1 [13-cis retinoic acid]	showed a similar effect	capable of reducing HCV load	
CC1=C(/C=C/C(C)=C/C=C/C(C)=C/C=O)C(C)(C)CCC1 [retinoic acid adlehyde]	showed a similar effect	capable of reducing HCV load	
O=[Se](O)O [sodium selenite]			severe cytotoxic effects (replicon cells; alone or both in combination): neither observed
O=C(O)c1ccc2cc(-c3ccc(O)c(C45CC6CC(CC(C6)C4)C5)c3)ccc2c1 [CD437, 6-[3-(1-adamantyl)-4-hydroxyphenyl]-2-naphthalene carboxylic acid]	showed a similar effect	capable of reducing HCV load	
IFN-α			HCV-replicon RNA and HCV protein NS5a level ([1]; 1000 U/ml, two and four days): time- and dose-dependent down-regulation; GI-GPx expression (GI-GPx [2]): no effect; GI-GPx expression (GI-GPx [3]; replicon cells, within four days of interferon treatment, 1000 U/ml): up-regulated
CC1=C(/C=C/C(C)=C/C=C/C(C)=C/C(=O)Nc2ccc(O)cc2)C(C)(C)CCC1 [4-HPR, N-(4-hydroxyphenyl) retinamide]	showed a similar effect	capable of reducing HCV load	
CC1=C(/C=C/C(C)=C\C=C\C(C)=C\C(=O)O)C(C)(C)CCC1 [9-cis retinoic acid]	showed a similar effect	capable of reducing HCV load	
C[n+]1ccc(-c2cc[n+](C)cc2)cc1 [paraquat]	showed a similar effect	capable of reducing HCV load	LD50 for paraquat (HuH 5-15 replicon cells): 270 ± 75 µM; LD50 for paraquat (HuH 11-7 replicon cells): 310 ± 65 µM; LD50 for paraquat (HuH pcDNA3 control cells): 1250 ± 120 µM; LD50 for paraquat (HuH 9-13 replicon cells): 260 ± 50 µM
CC1=C(/C=C/C(C)=C/C=C/C(C)=C/C(=O)O)C(C)(C)CCC1 [all-trans-retinoic acid]			downregulation of subgenomic HCV RNA and viral protein NS5a ([1]; 1 μM, seven days, depending on the cell line): two- to five-fold; effect on HCV expression ([1]; 1 μM, three days): hardly any effect; reduction of HCV RNA and HCV NS5a protein ([1]; six days, in the presence of selenium or a selenium salt like sodium selenite): two-to five-fold; induction of transcription of PKR [4]: did not induce; toxic effects (replicon cells; six days, in the presence of selenium or a selenium salt): absence of toxic effects; up-regulation of GI-GPx, RNA and protein level (GI-GPx [3]; 1 μM, seven days of incubation): three- to ten-fold; effect on GI-GPx expression (GI-GPx [3]; 1 μM, three days): hardly any effect; GI-GPx RNA and protein (GI-GPx [3]; six days): upregulation
CC1=C(/C=C/C(C)=C/C=C/C(C)=C/CO)C(C)(C)CCC1 [retinol]	showed a similar effect	capable of reducing HCV load	
